# Earlier results as cited in patent publication US20050227989A1, “Polycyclic thiazoles as potassium ion channel modulators” (ICAgen, Inc., priority 2004, published 2005).
# Molecular target: SK2 subtype channels (Rattus norvegicus, UniProt P70604)
# Conditions: patch clamp; cited from earlier work
row,SMILES,block of SK2 channel currents
1,NC(=O)N1c2ccccc2C=Cc2ccccc21 [carbamazepine],block SK2 channel currents with micromolar affinity
2,CN(C)CCCN1c2ccccc2Sc2ccc(Cl)cc21 [chlorpromazine],block SK2 channel currents with micromolar affinity
3,Nc1c2c(nc3ccccc13)CCCC2 [tacrine],block SK2 channel currents with micromolar affinity
